Experimental findings from PubChem BioAssay (NCI) are described below.

SMILES strings stand for the structures. Several values for one entry are separate records, joined by “and”; a condition that tells them apart may be missing. Identical values can stand only once.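 Where inhibition never reached the appropriate level, the endpoint shown equals the highest concentration tested. Otherwise, values were interpolated linearly from a five-concentration, 48-hour dose response in 96-well plates. The concentration for 50% growth inhibition is given as GI50. TGI marks complete inhibition of growth.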 Some results are limits rather than exact numbers.

In one assay the test system is CAKI-1 renal. In words: NCI-60 cell line screen, 48 h.
As for `N#C/C(=C/N1CCN(C(=O)c2ccco2)C1=S)C(=O)c1ccccc1`, the GI50 is 12.5 µM and the TGI amounted to 44.4 µM.
Taken in the same sequence, the figures for `CN(CCCNC(=O)Cc1ccc2ccc3cccc4ccc1c2c34)CCCNc1cc(-c2ccc3ccccc3c2)nc2ccccc12` were 1.8 µM and 3.55 µM.
Turning to `O=C(Nc1ccc(-n2cc(-c3ccncc3)c(-c3ccc(Cl)c(O)c3)n2)cc1)Nc1ccc(Cl)c(C(F)(F)F)c1`, the GI50 was 3.01 µM and the TGI amounted to 15.3 µM.
Turning to `Cc1cc(S(=O)(=O)N/N=C(\Sc2cc(Cl)c(C)cc2S(N)(=O)=O)c2ccc(Cl)cc2)c(Cl)cc1Cl`, the GI50 is 61.8 µM and the TGI was greater than 100 µM.
As for `COc1ccc(C(=O)COc2cccc(/C=C3\Oc4ccc5ccccc5c4C3=O)c2)cc1`, the GI50 was 10.7 µM and the TGI was 23.5 µM.
On to `COc1ccc(-c2oc3cc(O)c(OC)c(O)c3c(=O)c2OC)cc1O`, for which the GI50 is 2.38 µM and the TGI amounted to 28.3 µM.
In turn, `Cc1c(C2=C(Br)C(=O)N(C)C2=O)c(=O)n(C)c(=O)n1C` had a TGI of 34.8 µM.
Take `Cc1cc(N/N=C/c2nc(-c3ccc(Br)cc3)oc2C)c2cc(Br)ccc2n1`: the GI50 was 8.15 µM and the TGI was 20.6 µM.
For `CC(C)OC(=O)NNc1cc(Cl)ccc1Cl`, the TGI is greater than 100 µM.
Take `Cc1cc(C2CC(O)C(CO)O2)cc2c(=O)[nH]c(N)nc12` (stereo not given): the GI50 was greater than 100 µM and the TGI is greater than 100 µM.
For `COc1ccc2c(O)cc3c(c2c1)[C@H](CCl)CN3C(=O)c1cc2cc(NC(=O)CCN3CCOCC3)ccc2[se]1`, the GI50 is less than 0.001 µM and the TGI is less than 0.001 µM.
In the case of `CC(C)N=c1cc2n(-c3ccc(Cl)cc3)c3ccccc3nc-2cc1Nc1ccc(Cl)cc1`, the GI50 is 1.73 µM and the TGI is greater than 20.9 µM.
In the case of `Cc1cc2c(cc1Cl)SC(=Nc1ccc(Cl)cc1)N(S(=O)(=O)c1ccccc1)S2(=O)=O`, the GI50 was 5.37 µM and the TGI was 23.4 µM.
Molecule `C=C1C(=O)O[C@H]2/C=C(/C)C3=CC(=O)[C@@](C)(C[C@@H](OC(=O)/C(C)=C\C)C12)O3` (stereo not given in full) registered a TGI of 0.432 µM.
On to `O=C(CSC(c1ccccc1)c1ccccc1)N/N=C/c1ccc(Cl)cc1Cl`, for which the GI50 was 38.3 µM and the TGI is 83 µM.

A further assay concerns HOP-62 NSCLC. In words: NCI-60 cell line screen, 48 h.
In the case of `N#C/C(=C/N1CCN(C(=O)c2ccco2)C1=S)C(=O)c1ccccc1`, the GI50 is 22 µM and the TGI stood at 47 µM.
On the same counts, the results for `CN(CCCNC(=O)Cc1ccc2ccc3cccc4ccc1c2c34)CCCNc1cc(-c2ccc3ccccc3c2)nc2ccccc12` are 1.71 µM and 3.26 µM.
Taken in the same sequence, the figures for `COCCOc1cnc2ccn([C@H](C)c3nnc4c(F)cc(-c5cnn(C)c5)cn34)c(=O)c2c1` were greater than 100 µM and greater than 100 µM.
Turning to `O=C(Nc1ccc(-n2cc(-c3ccncc3)c(-c3ccc(Cl)c(O)c3)n2)cc1)Nc1ccc(Cl)c(C(F)(F)F)c1`, the GI50 is 1.68 µM and the TGI was 3.18 µM.
On the same counts, the results for `Cc1cc(S(=O)(=O)N/N=C(\Sc2cc(Cl)c(C)cc2S(N)(=O)=O)c2ccc(Cl)cc2)c(Cl)cc1Cl` are greater than 100 µM and greater than 100 µM.
Taken in the same sequence, the figures for `COc1ccc(C(=O)COc2cccc(/C=C3\Oc4ccc5ccccc5c4C3=O)c2)cc1` were 14.9 µM and 28.1 µM.
As to `COc1ccc(-c2oc3cc(O)c(OC)c(O)c3c(=O)c2OC)cc1O`, the GI50 was 0.271 µM and the TGI was greater than 100 µM.
In turn, `Cc1c(C2=C(Br)C(=O)N(C)C2=O)c(=O)n(C)c(=O)n1C` yielded a TGI greater than 100 µM.
Take `Cc1cc(N/N=C/c2nc(-c3ccc(Br)cc3)oc2C)c2cc(Br)ccc2n1`: the GI50 was 2.32 µM and the TGI amounted to 5.84 µM.
`CC(C)OC(=O)NNc1cc(Cl)ccc1Cl` registered a TGI greater than 100 µM.
With `Cc1cc(C2CC(O)C(CO)O2)cc2c(=O)[nH]c(N)nc12` (stereo not given), the GI50 is greater than 100 µM and the TGI is greater than 100 µM.
With `COc1ccc2c(O)cc3c(c2c1)[C@H](CCl)CN3C(=O)c1cc2cc(NC(=O)CCN3CCOCC3)ccc2[se]1`, the GI50 was less than 0.001 µM and the TGI was 2.03 µM.
Turning to `CC(C)N=c1cc2n(-c3ccc(Cl)cc3)c3ccccc3nc-2cc1Nc1ccc(Cl)cc1`, the GI50 is 4.71 µM and 4.81 µM; the TGI is greater than 100 µM.
On to `Cc1cc2c(cc1Cl)SC(=Nc1ccc(Cl)cc1)N(S(=O)(=O)c1ccccc1)S2(=O)=O`, for which the GI50 is 13.5 µM and the TGI was determined as 26.4 µM.
Taken in the same sequence, the figures for `Cc1ccc(S(=O)(=O)NCCNc2nccc(-c3c(-c4ccc(F)cc4)nc4sccn34)n2)cc1` were 13.5 µM and 29.3 µM.
With `C=C1C(=O)O[C@H]2[C@H]1CC/C(COC(=O)c1ccc(Cl)nc1)=C\CC[C@@]1(C)O[C@@H]21`, the GI50 was 11 µM and the TGI turned out to be 26.3 µM.
Turning to `C=C1C(=O)O[C@H]2/C=C(/C)C3=CC(=O)[C@@](C)(C[C@@H](OC(=O)/C(C)=C\C)C12)O3` (stereo not given in full), the TGI was greater than 100 µM.
On to `O=C(CSC(c1ccccc1)c1ccccc1)N/N=C/c1ccc(Cl)cc1Cl`, for which the GI50 is 42.3 µM and the TGI was greater than 100 µM.

In another assay the test system is HS 578T breast. In words: NCI-60 cell line screen, 48 h.
For the molecule `CN(CCCNC(=O)Cc1ccc2ccc3cccc4ccc1c2c34)CCCNc1cc(-c2ccc3ccccc3c2)nc2ccccc12`, the GI50 is 1.66 µM and the TGI amounted to 3.59 µM.
Consider `COCCOc1cnc2ccn([C@H](C)c3nnc4c(F)cc(-c5cnn(C)c5)cn34)c(=O)c2c1`, for which the GI50 was 82.7 µM and the TGI was greater than 100 µM.
With `O=C(Nc1ccc(-n2cc(-c3ccncc3)c(-c3ccc(Cl)c(O)c3)n2)cc1)Nc1ccc(Cl)c(C(F)(F)F)c1`, the GI50 is 1.39 µM and the TGI was 4.43 µM.
For the molecule `Cc1cc(S(=O)(=O)N/N=C(\Sc2cc(Cl)c(C)cc2S(N)(=O)=O)c2ccc(Cl)cc2)c(Cl)cc1Cl`, the GI50 is greater than 100 µM and the TGI was greater than 100 µM.
`COc1ccc(C(=O)COc2cccc(/C=C3\Oc4ccc5ccccc5c4C3=O)c2)cc1`: the GI50 is 5.39 µM and the TGI turned out to be 25.8 µM.
